What was measured:
hyaluronan synthase HAS2 = test: Augmentation effect on mRNA expression of hyaluronan synthase HAS2 (semi-quantitative RT-PCR); format: cell-based; conditions: human fibroblast NHDF(AD), phospholipid liposome in culture medium, 24 hours; concentrations only in Fig. 1
Method: Normal human fibroblasts (NHDF(AD); Kurabo Industries Ltd.) were seeded at 8×10^5/well in 6-well plates. After 24-hour preculture, the culture media were removed and replaced with culture media each containing a different phospholipid liposome prepared in Preparation Examples 2 to 4. The culture was maintained for 24 hours. Then, after removal of the culture medium and addition of 1 mL of ISOGEN (NIPPON GENE), RNA was extracted from the cells according to the usual method described in the attachment of ISOGEN.
cDNA preparation was performed using SuperScriptIII First-Strand Synthesis System for RT-PCR (Invitrogen) according to the operating procedures described in the attachment of the kit. RT-PCR was performed using primers below. HAS2 (Forward): […] (SEQ ID NO: 1) HAS2 (Reverse): […] (SEQ ID NO: 2) β-actin (Forward): […] (SEQ ID NO: 3) β-actin (Reverse): […] (SEQ ID NO: 4)
Using each of the obtained cDNA and the HAS2 primer set, PCR was performed for 29 cycles of 94°C for 1 min, 58°C for 1 min, and 72°C for 1 min. […] After completion of PCR, the PCR product was analyzed by electrophoresis in 1.5% agarose gel. Each band strength was determined by densitometry and the degree of increase in HAS2 mRNA expression was semi-quantitatively assessed by comparison of the HAS2/β-actin ratios between samples and the control. […]

[1] = system: Normal human dermal fibroblasts (NHDF(AD)); test: Hyaluronan production promoting effect in fibroblasts (ELISA of culture supernatant); format: cell-based; conditions: phospholipid liposome at 100 µg/mL, 24 hours
Method: Normal human dermal fibroblasts (NHDF(AD); Kurabo Industries, Ltd.) were seeded at 2×10^5/well in 24-well plates. After 24-hour preculture, the culture media were removed and replaced with culture media each containing a different phospholipid liposome at 100 µg/mL, i.e. , the PI-PS containing liposome obtained in Preparation Example 2, the PI liposome obtained in Preparation Example 3, or the PS liposome obtained in Preparation Example 4. The culture was maintained for 24 hours. The culture supernatant was collected and hyaluronan therein was quantified by the ELISA method.
A hyaluronan binding protein (HABP; SEIKAGAKU CORPORATION) was added at 2 µg/mL to 96-well plates, which were then allowed to stand at 4°C for 24 hours. After this, the wells were washed. Blocking was performed at 4°C for 24 hours using Block Ace (Dainippon Sumitomo Pharma Co., Ltd.). After the wells were washed, a hyaluronan standard (Wako Pure Chemical Industries, Ltd.) or the culture supernatant was added to the wells and 1-hour incubation was performed at 37°C. After the wells were washed, biotinylated HABP (SEIKAGAKU CORPORATION) was added to the wells and 2-hour incubation was performed at 37°C. […] After the reaction at 37°C for 30 minutes, the absorbance at 405 nm was measured.

L-α-phosphatidylinositol Na [PI] was tested, and the “mRNA expression of HAS2 (HAS2/β-actin ratio relative to control cells)” value (hyaluronan synthase HAS2) was “significantly increased” and the production of hyaluronan [1] was “significantly increased”.

L-α-phosphatidylserine [PS] was tested, and the “mRNA expression of HAS2 (HAS2/β-actin ratio relative to control cells)” value (hyaluronan synthase HAS2) was “significantly increased” and the production of hyaluronan [1] was “significantly increased”.

— patent EP2255814A1, “AGENT FOR INCREASING THE QUANTITY OF HYALURONIC ACID” (Nagase ChemteX Corporation, priority 2008, dated 2009)
